Laboratory results taken from US7825146B2, “Sulfonamide derivative having isoxazole ring” (Shionogi & Co., Ltd., priority 2003, dated 2010).

Legend:
Type in all cases: biochemical
MMP-13 = biological target: T1, MMP-13 (Homo sapiens, UniProt P45452); test: Assay for inhibitory activities on MMPs (fluorogenic MOCAc peptide substrate): MMP-13; settings: Table 40
T1 construct: catalytic domain (^104Tyr˜^267Gly) was amplified with RT-PCR; His-tag; enterokinase digestion-site; made in house
Method: (§1) In regard to MMP-13, mRNA was prepared from carcinoma cell SW1353 derived from human cartilage stimulate by IL-1, TNF and catalytic domain (^104Tyr˜^267Gly) was amplified with RT-PCR. This was cloned in Escherichia. coli expression vector pTrc99AHE inserted with His-tag sequence and enterokinase digestion-site, induced and expressed by IPTG (Isopropyl-β-D-thiogalactopyranoside) and expressed in a insoluble fraction. Isolation of MMP-13 from an insoluble fraction was carried out by dissolving in modifier (6M urea) by a usual method and purification with metal chelate chromatography (Ni Chelateing Sepharose). And then removing modifier (6M urea) with dialyze and refolding of the enzyme spontaneously gave activated MMP-13.
(§2) The enzymatic activity on MMPs was analyzed by the method described in “C. Graham Knight, Frances Willenbrock and Gillian Murphy: A novel coumarin-labelled peptide for sensitive continuous assays of the matrix metalloproteinases: FEBS LETT., 296, (1992), 263-266”. The substrate: MOCAc-Pro-Leu-Gly-Leu-A2Pr(DNP)-Ala-Arg-NH2 was purchased from Peptide Institute, Inc., Osaka, Japan. The measurement of the inhibitory activities (IC50) was carried out by the following four methods; • (A) Reaction with substrate, enzyme (MMPs) and inhibitor • (B) Reaction with substrate and inhibitor, without enzyme • (C) Reaction with substrate and enzyme (MMPs), without inhibitor • (D) Reaction with substrate only IC50 values were calculated by using the following formula and each fluorescence values of above four methods (A to D).
(§3) The value of inhibitory activity against MMP-2, MMP-8, MMP-9, MMP-12, and MMP-13 measured by above mentioned methods are shown in Table 36, 37, 38, 39, and 40 respectively.

MMP-12 = biological target: T2, MMP-12 (Homo sapiens, UniProt P39900); test: Assay for inhibitory activities on MMPs (fluorogenic MOCAc peptide substrate): MMP-12; settings: catalytic domain 100Phe-263Gly
T2 construct: In regard to MMP-12, catalytic domain(^100Phe˜^263Gly) was amplified with RT-PCR; His-tag; enterokinase digestion-site; made in house
Method: as §1, with “MMP-12,” for “MMP-13, mRNA was prepared from carcinoma cell SW1353 derived from human cartilage stimulate by IL-1, TNF and”, “domain(^100Phe˜^263Gly)” for “domain (^104Tyr˜^267Gly)”, “RT-PCR from Human Placenta Total RNA.” for “RT-PCR.”, “MMP-12” for “MMP-13”, “dialysis” for “dialyze”, “MMP-12.” for “MMP-13.”
as §2, §3

MMP-8 = biological target: T3, MMP-8 (Homo sapiens, UniProt P22894); test: Assay for inhibitory activities on MMPs (fluorogenic MOCAc peptide substrate): MMP-8; settings: catalytic domain 99Phe-262Gly
T3 construct: In regard to MMP-8, catalytic domain (^99Phe˜^262Gly) was amplified with PCR; His-tag; enterokinase digestion-site; made in house
Source text: In regard to MMP-8, catalytic domain (^99Phe˜^262Gly) was amplified with PCR using commercial available Human Bone Marrow cDNA. This was cloned in Escherichia. coli expression vector pTrc99AHE inserted with His-tag sequence and enterokinase digestion-site, induced and expressed by IPTG (Isdpropyl-β-D-thiogalactopyranoside) and expressed in a insoluble fraction (Thau F. Ho, M. Walid Qoronfleh, Robert C. Wahl, Trica A. Pulvino, Karen J. Vavra, Joe Falvo, Tracey M. Banks, Patricia G. Brake and Richard B. Ciccarelli: Gene expression, purification and characterization of recombinant human neutrophil collagenase. Gene 146, (1994) 297-301, Prepared by the a improved method of this material). Isolation of MMP-8 from an insoluble fraction was carried out by dissolving in modifier (6M urea) by a usual method and purification with metal chelate chromatography. And then removing modifier (6M urea) with dialysis and refolding of the enzyme spontaneously gave activated MMP-8.
as §2, §3

T3 sequence (P22894 99-262): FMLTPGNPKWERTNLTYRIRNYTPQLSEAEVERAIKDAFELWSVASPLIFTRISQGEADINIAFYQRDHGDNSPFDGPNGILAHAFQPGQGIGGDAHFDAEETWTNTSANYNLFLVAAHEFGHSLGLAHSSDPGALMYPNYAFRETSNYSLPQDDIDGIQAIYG
T2 sequence (P39900 100-263): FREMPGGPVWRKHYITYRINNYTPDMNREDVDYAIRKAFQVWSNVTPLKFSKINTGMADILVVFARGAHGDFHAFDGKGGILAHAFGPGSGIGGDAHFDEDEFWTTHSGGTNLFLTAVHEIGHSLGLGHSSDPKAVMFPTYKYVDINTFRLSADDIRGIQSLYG

Row | Structure (SMILES) | IC50 (MMP-13) | IC50 (MMP-12) | IC50 (MMP-8)
1 | CC(C)[C@H](NS(=O)(=O)c1ccc(-c2cc(-c3ccc(Cl)c(Cl)c3)on2)cc1)C(=O)O [Example C-41] |  | 0.000294 µM | 0.00379 µM
2 | Cc1ccc(-c2cc(-c3ccc(S(=O)(=O)N[C@@H](CC(C)C)C(=O)O)cc3)no2)s1 [Example C-75] |  | 0.000677 µM | 0.00198 µM
3 | CC(C)[C@H](NS(=O)(=O)c1ccc(-c2cc(-c3ccc4c(c3)CCO4)on2)cc1)C(=O)O [Example C-48] |  | 0.0002 µM | 0.000892 µM
4 | CC(C)c1ccc(-c2cc(-c3ccc(S(=O)(=O)N[C@H](Cc4c[nH]c5ccccc45)C(=O)O)cc3)on2)cc1 [Example A-111] | 0.000465 µM |  | 
5 | CC(C)C[C@H](NS(=O)(=O)c1ccc(-c2cc(-c3ccc4c(c3)OCO4)on2)cc1)C(=O)O [Example C-86] |  | 0.000545 µM | 0.00478 µM
6 | CC(C)[C@@H](NS(=O)(=O)c1ccc(-c2cc(-c3ccc4c(c3)OCO4)on2)cc1)C(=O)O [Example C-44] |  | 0.000649 µM | 0.00359 µM
7 | CCc1ccc(-c2cc(-c3ccc(S(=O)(=O)N[C@H](C(=O)O)C(C)CC)cc3)no2)s1 (stereo partly shown) [Example C-99] | 0.000971 µM | 0.000649 µM | 
8 | COc1ccc(-c2cc(-c3ccc(S(=O)(=O)N[C@@H](CC(C)C)C(=O)O)cc3)on2)cc1F [Example A-79] |  | 0.000622 µM | 0.00111 µM
9 | CC(C)C[C@H](NS(=O)(=O)c1ccc(-c2cc(-c3ccc(Cl)c(Cl)c3)on2)cc1)C(=O)O [Example C-88] |  | 0.000184 µM | 0.00437 µM
10 | CC(C)C[C@H](NS(=O)(=O)c1ccc(-c2cc(-c3ccc4c(c3)CCO4)on2)cc1)C(=O)O [Example C-91] |  | 0.000184 µM | 0.00108 µM
11 | CCC(C)[C@H](NS(=O)(=O)c1ccc(-c2cc(-c3ccc(C)s3)on2)cc1)C(=O)O (stereo partly shown) [Example C-98] |  | 0.000629 µM | 0.00103 µM
12 | CC(C)[C@@H](NS(=O)(=O)c1ccc(-c2cc(-c3ccc4c(c3)CCO4)on2)cc1)C(=O)O [Example C-47] |  | 0.000264 µM | 0.00107 µM
13 | CC(C)[C@H](NS(=O)(=O)c1ccc(-c2cc(-c3ccc(Cl)s3)on2)cc1)C(=O)O [Example C-34] |  | 0.000866 µM | 0.00177 µM
14 | CC(C)[C@H](NS(=O)(=O)c1ccc(-c2cc(-c3ccc4c(c3)OCO4)on2)cc1)C(=O)O [Example C-45] |  | 0.000641 µM | 0.00366 µM
15 | CC(C)C[C@@H](NS(=O)(=O)c1ccc(-c2cc(-c3ccc(Cl)s3)on2)cc1)C(=O)O [Example C-78] |  |  | 0.00463 µM
16 | COc1ccc(-c2cc(-c3ccc(S(=O)(=O)N[C@@H](C(=O)O)C(C)C)cc3)on2)cc1Cl [Example A-56] |  | 0.000898 µM | 0.00397 µM
17 | CCC(C)[C@H](NS(=O)(=O)c1ccc(-c2cc(-c3ccc(Cl)c(Cl)c3)on2)cc1)C(=O)O (stereo partly shown) [Example C-104] |  | 0.000281 µM | 0.00489 µM
18 | CC(C)[C@H](NS(=O)(=O)c1ccc(-c2cc(-c3ccc(Cl)c(F)c3)on2)cc1)C(=O)O [Example C-37] |  | 0.000172 µM | 0.00433 µM
19 | Cc1ccc(-c2cc(-c3ccc(S(=O)(=O)N[C@H](C(=O)O)C(C)C)cc3)no2)s1 [Example C-30] |  | 0.000758 µM | 0.00124 µM
20 | CCC(C)[C@H](NS(=O)(=O)c1ccc(-c2cc(-c3ccc(OC(F)(F)F)cc3)on2)cc1)C(=O)O (stereo partly shown) [Example C-102] | 0.000837 µM | 0.00014 µM | 
21 | COc1ccc(-c2cc(-c3ccc(S(=O)(=O)N[C@@H](C(=O)O)C(C)C)cc3)no2)cc1F [Example C-51] | 0.000836 µM | 0.000266 µM | 0.00263 µM
22 | CC(C)C[C@H](NS(=O)(=O)c1ccc(-c2cc(-c3ccc(Cl)s3)on2)cc1)C(=O)O [Example C-79] |  | 0.0008 µM | 0.00286 µM

Other lines, results leading:

Row | IC50 (MMP-13) | IC50 (MMP-12) | IC50 (MMP-8) | Structure (SMILES)
23 | 0.000635 µM | 0.000764 µM |  | CSCC[C@@H](NS(=O)(=O)c1ccc(-c2cc(-c3ccc(OC(F)(F)F)cc3)no2)cc1)C(=O)O [Example A-108]
24 | 0.000403 µM | 0.000287 µM |  | CC(C)c1ccc(-c2cc(-c3ccc(S(=O)(=O)N[C@H](C(=O)O)C(C)C)cc3)no2)cc1 [Example C-16]
25 | 0.000643 µM |  |  | O=C(O)C[C@@H](NS(=O)(=O)c1ccc(-c2cc(-c3ccc(C(F)(F)F)cc3)on2)cc1)C(=O)O [Example C-115]
26 | 0.000758 µM | 0.000316 µM |  | CC(C)[C@@H](NS(=O)(=O)c1ccc(-c2cc(-c3ccc(C(F)(F)F)cc3)on2)cc1)C(=O)O [Example C-27]
27 | 0.000578 µM | 0.000239 µM | 0.00421 µM | CCC(C)[C@H](NS(=O)(=O)c1ccc(-c2cc(-c3ccc(SC)cc3)on2)cc1)C(=O)O (stereo partly shown) [Example C-97]
28 | 0.000757 µM | 0.000201 µM |  | CCc1ccc(-c2cc(-c3ccc(S(=O)(=O)N[C@H](C(=O)O)C(C)C)cc3)no2)cc1 [Example C-13]
29 |  | 0.000228 µM | 0.00229 µM | CCC(C)[C@H](NS(=O)(=O)c1ccc(-c2cc(-c3ccc(OC)cc3)on2)cc1)C(=O)O (stereo partly shown) [Example C-96]
30 | 0.000884 µM | 0.000148 µM |  | CC(C)[C@H](NS(=O)(=O)c1ccc(-c2cc(-c3ccc(OC(F)(F)F)cc3)on2)cc1)C(=O)O [Example C-26]
31 | 0.000889 µM |  |  | CC(C)C[C@@H](NS(=O)(=O)c1ccc(-c2cc(-c3ccc(C(C)C)cc3)on2)cc1)C(=O)O [Example C-59]
32 | 0.000223 µM | 0.000578 µM |  | CCCc1ccc(-c2cc(-c3ccc(S(=O)(=O)N[C@H](CC(=O)O)C(=O)O)cc3)no2)cc1 [Example C-114]
33 |  | 0.000447 µM | 0.00397 µM | COc1ccc(-c2cc(-c3ccc(S(=O)(=O)N[C@H](C(=O)O)C(C)C)cc3)no2)cc1 [Example C-19]
34 | 0.000739 µM | 0.000289 µM |  | CSc1ccc(-c2cc(-c3ccc(S(=O)(=O)N[C@H](C(=O)O)C(C)C)cc3)no2)cc1 [Example C-11]
35 | 0.000919 µM | 0.000335 µM |  | CC(C)C[C@H](NS(=O)(=O)c1ccc(-c2cc(-c3ccc(C(C)C)cc3)on2)cc1)C(=O)O [Example C-60]
36 | 0.000702 µM | 0.000172 µM |  | CCc1ccc(-c2cc(-c3ccc(S(=O)(=O)N[C@H](C(=O)O)C(C)CC)cc3)no2)cc1 (stereo partly shown) [Example C-95]
37 | 0.000658 µM |  |  | CSCC[C@@H](NS(=O)(=O)c1ccc(-c2cc(-c3ccc(C(C)C)cc3)no2)cc1)C(=O)O [Example A-107]
38 | 0.000853 µM | 0.000384 µM | 0.00419 µM | COc1ccc(-c2cc(-c3ccc(S(=O)(=O)N[C@@H](C(=O)O)C(C)C)cc3)no2)cc1 [Example C-18]
39 | 0.000733 µM |  |  | CCc1ccc(-c2cc(-c3ccc(S(=O)(=O)N[C@H](CC(=O)O)C(=O)O)cc3)no2)cc1 [Example C-113]
40 | 0.000943 µM |  |  | CCc1ccc(-c2cc(-c3ccc(S(=O)(=O)N[C@@H](C(=O)O)C(C)C)cc3)on2)cc1 [Example A-26]
41 | 0.000578 µM | 0.000239 µM | 0.00421 µM | CCCCc1ccc(-c2cc(-c3ccc(S(=O)(=O)N[C@@H](C(=O)O)C(C)C)cc3)no2)cc1 [Example C-17]
